Reference: PubChem BioAssay AID248 (DTP/NCI, 2004)
Values joined by “and” are separate entries in the source; they are usually repeats but may differ in a detail not shown here. Equal values may be shown once. Toxic doses and inconclusive results are not listed. Rule as the data show it: active = T/C of 150% or more; inactive = T/C below 125%.

Test system: L1210 leukemia ip in BDF1 mice, survival T/C
Experiment: NCI In Vivo Anticancer Drug Screen. Data for tumor model L1210 Leukemia (intraperitoneal) in B6D2F1 (BDF1) mice
Settings: endpoint: mean survival time, higher = longer survival
Outline: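 Value reflects the ratio of survival in compound-treated mice to survival in vehicle-treated controls, with both groups carrying the same transplanted tumor.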

[1] = dose: 100.0 mg/kg/injection, schedule: Q01DX001 (ip), vehicle: other
[2] = dose: 200.0 mg/kg/injection, schedule: Q01DX001 (ip), vehicle: other
[3] = dose: 400.0 mg/kg/injection, schedule: Q01DX001 (ip), vehicle: other
[4] = dose: 100.0 mg/kg/injection, schedule: Q01DX009 (ip), vehicle: Klucel (hydroxypropylcellulose) (HPC)
[5] = dose: 100.0 mg/kg/injection, schedule: Q04DX003 (ip), vehicle: Klucel (hydroxypropylcellulose) (HPC)
[6] = dose: 200.0 mg/kg/injection, schedule: Q01DX009 (ip), vehicle: Klucel (hydroxypropylcellulose) (HPC)
[7] = dose: 200.0 mg/kg/injection, schedule: Q04DX003 (ip), vehicle: Klucel (hydroxypropylcellulose) (HPC)
[8] = dose: 400.0 mg/kg/injection, schedule: Q04DX003 (ip), vehicle: Klucel (hydroxypropylcellulose) (HPC)
[9] = dose: 100.0 mg/kg/injection, schedule: Q01DX009 (ip), vehicle: saline
[10] = dose: 200.0 mg/kg/injection, schedule: Q01DX009 (ip), vehicle: saline
[11] = dose: 400.0 mg/kg/injection, schedule: Q01DX009 (ip), vehicle: saline
[12] = dose: 100.0 mg/kg/injection, schedule: Q04DX003 (ip), vehicle: saline
[13] = dose: 200.0 mg/kg/injection, schedule: Q04DX003 (ip), vehicle: saline
[14] = dose: 400.0 mg/kg/injection, schedule: Q04DX003 (ip), vehicle: saline
[15] = dose: 100.0 mg/kg/injection, schedule: Q01DX001 (ip), vehicle: saline
[16] = dose: 200.0 mg/kg/injection, schedule: Q01DX001 (ip), vehicle: saline
[17] = dose: 400.0 mg/kg/injection, schedule: Q01DX001 (ip), vehicle: saline
[18] = dose: 50.0 mg/kg/injection, schedule: Q01DX009 (ip), vehicle: saline
[19] = dose: 25.0 mg/kg/injection, schedule: Q01DX009 (ip), vehicle: Klucel (hydroxypropylcellulose) (HPC)
[20] = dose: 50.0 mg/kg/injection, schedule: Q01DX009 (ip), vehicle: Klucel (hydroxypropylcellulose) (HPC)

Measured: T/C

c1ccc2sc(SSN3CCSCC3)nc2c1
inactive: dose: 75.0 mg/kg/injection, schedule: Q04DX003 (ip), vehicle: Klucel (hydroxypropylcellulose) (HPC) 102 % of control | [1] 98 % of control | dose: 150.0 mg/kg/injection, schedule: Q04DX003 (ip), vehicle: Klucel (hydroxypropylcellulose) (HPC) 100 % of control | [2] 92 % of control | dose: 300.0 mg/kg/injection, schedule: Q04DX003 (ip), vehicle: Klucel (hydroxypropylcellulose) (HPC) 89 % of control | [3] 97 % of control

Cc1ccc(NC(=O)c2cccc(C(=O)Nc3ccc(C)c(C)c3)c2)cc1C
inactive: [4] 94 % of control | [5] 91 % of control | [6] 104 % of control | [7] 97 % of control | dose: 400.0 mg/kg/injection, schedule: Q01DX009 (ip), vehicle: Klucel (hydroxypropylcellulose) (HPC) 94 % of control | [8] 91 % of control

O=C1OC2C3c4ccccc4C(c4c3cc(F)c3ccccc43)C2O1 (stereo unspecified)
inactive: [5] 100 % of control | [7] 97 % of control | [8] 95 % of control

CN(C)P1(N)=NP(N)(N(C)C)=NP(N)(N(C)C)=N1 (stereo unspecified)
inactive: [9] 98 % of control | [10] 95 % of control | [11] 93 % of control

O=C(c1ccc([N+](=O)[O-])cc1)C1NC1c1ccccc1 (stereo unspecified)
inactive: dose: 50.0 mg/kg/injection, schedule: Q01DX001 (ip), vehicle: carboxymethylcellulose (CMC) 91 % of control | dose: 100.0 mg/kg/injection, schedule: Q01DX001 (ip), vehicle: carboxymethylcellulose (CMC) 97 % of control | dose: 200.0 mg/kg/injection, schedule: Q01DX001 (ip), vehicle: carboxymethylcellulose (CMC) 100 % of control | dose: 400.0 mg/kg/injection, schedule: Q01DX001 (ip), vehicle: carboxymethylcellulose (CMC) 91 % of control

NC(=O)C(N)Cc1ccc(O)c(O)c1 (stereo unspecified)
inactive: [9] 107 % of control | [12] 102 % of control | [10] 102 % of control | [13] 98 % of control | [11] 109 % of control | [14] 115 % of control | dose: 800.0 mg/kg/injection, schedule: Q01DX009 (ip), vehicle: saline 103 % of control and 114 % of control | dose: 1600.0 mg/kg/injection, schedule: Q01DX009 (ip), vehicle: saline 104 % of control

ClCC1COC(Cc2ccccc2)O1 (stereo unspecified)
inactive: dose: 222.0 mg/kg/injection, schedule: Q01DX Z (ip), vehicle: saline 97 % of control | dose: 333.0 mg/kg/injection, schedule: Q01DX Z (ip), vehicle: saline 97 % of control | dose: 500.0 mg/kg/injection, schedule: Q01DX Z (ip), vehicle: saline 103 % of control

CC(=O)C1C=NC(C)(C)C(C)(C)N=CC(C(C)=O)C(C)=NCCCN=C1C.[Ni] (stereo unspecified)
inactive: dose: 12.5 mg/kg/injection, schedule: Q04DX002 (ip), vehicle: saline 97 % of control | dose: 25.0 mg/kg/injection, schedule: Q04DX002 (ip), vehicle: saline 97 % of control

O=C(CN1C(=O)c2ccccc2C1=O)NCC(=O)Nc1ccccc1
inactive: dose: 50.0 mg/kg/injection, schedule: Q01DX001 (ip), vehicle: saline 93 % of control | [15] 98 % of control | [16] 104 % of control | [17] 93 % of control

O=C(O)C1C[n+]2ccccc2O1 (stereo unspecified)
inactive: [18] 116 % of control | [12] 97 % of control | [13] 103 % of control

CN(C)CCCNC(CC#N)CCC#N (stereo unspecified)
inactive: [18] 91 % of control | [9] 92 % of control | [10] 92 % of control

COC(=O)Cc1cc(Cl)c2cc(C)ccc2n1
inactive: [1] 95 % of control | [2] 98 % of control | [3] 96 % of control

c1ccc2cc3c(cc2c1)Cn1c-3nc2ccccc21
inactive: [15] 108 % of control | [9] 97 % of control | dose: 100.0 mg/kg/injection, schedule: Q01DX015 (ip), vehicle: saline 95 % of control | [12] 98 % of control | [16] 100 % of control | [10] 95 % of control | dose: 200.0 mg/kg/injection, schedule: Q01DX015 (ip), vehicle: saline 97 % of control | [13] 93 % of control | [17] 100 % of control | [11] 112 % of control | [14] 96 % of control

CN(C)CCOC(=O)c1ccccc1CCl
inactive: dose: 10.0 mg/kg/injection, schedule: Q01DX009 (ip), vehicle: saline 101 % of control | dose: 20.0 mg/kg/injection, schedule: Q01DX009 (ip), vehicle: saline 98 % of control | dose: 40.0 mg/kg/injection, schedule: Q01DX009 (ip), vehicle: saline 98 % of control

CC(=O)CCC(=O)OCCCl
inactive: [18] 102 % of control | [9] 101 % of control | [10] 101 % of control

C[N+](C)(C)CCOC(=O)c1cccc(CBr)c1
inactive: [18] 92 % of control | [9] 95 % of control | [12] 98 % of control | [10] 93 % of control | [13] 105 % of control

Nc1ncnc2c1ncn2C1OC(COP(=O)(O)OP(=O)(O)OP(=O)(O)O)C(O)C1O (stereo unspecified)
inactive: dose: 80.0 mg/kg/injection, schedule: Q01DX Z (ip), vehicle: saline 87 % of control | dose: 120.0 mg/kg/injection, schedule: Q01DX Z (ip), vehicle: saline 87 % of control | dose: 180.0 mg/kg/injection, schedule: Q01DX Z (ip), vehicle: saline 95 % of control | dose: 270.0 mg/kg/injection, schedule: Q01DX Z (ip), vehicle: saline 98 % of control

O=C1C(c2c[nH]c3ccc(Br)cc23)=Nc2ccc(Br)cc21
inactive: [15] 102 % of control | [16] 100 % of control | [17] 105 % of control

COc1cc(/C=C(/C)[N+](=O)[O-])ccc1O
inactive: dose: 6.0 mg/kg/injection, schedule: Q01DX009 (ip), vehicle: carboxymethylcellulose (CMC) 112 % of control | dose: 12.0 mg/kg/injection, schedule: Q01DX009 (ip), vehicle: carboxymethylcellulose (CMC) 92 % of control | [19] 112 % of control | dose: 25.0 mg/kg/injection, schedule: Q01DX009 (ip), vehicle: carboxymethylcellulose (CMC) 105 % of control | [20] 100 % of control | dose: 50.0 mg/kg/injection, schedule: Q01DX009 (ip), vehicle: carboxymethylcellulose (CMC) 100 % of control and 103 % of control | dose: 50.0 mg/kg/injection, schedule: Q04DX003 (ip), vehicle: Klucel (hydroxypropylcellulose) (HPC) 97 % of control | [4] 109 % of control | [5] 105 % of control | [6] 103 % of control | [7] 103 % of control

CC(=O)CSc1sc(C(C)=O)c(N)c1C#N
inactive: dose: 100.0 mg/kg/injection, schedule: Q01DX009 (ip), vehicle: saline with Tween-80 91 % of control | dose: 200.0 mg/kg/injection, schedule: Q01DX009 (ip), vehicle: saline with Tween-80 91 % of control | dose: 400.0 mg/kg/injection, schedule: Q01DX009 (ip), vehicle: saline with Tween-80 90 % of control

N#CCN1CCCN(CC#N)C1
inactive: [19] 96 % of control | [20] 115 % of control | [4] 88 % of control and 91 % of control | [5] 92 % of control | [7] 103 % of control
